Test results from patent publication US11716994B2, “Combinations of Yersinia entomophaga and pesticides or other substances” (priority 2017, dated 2023).
Where two headings read alike, the source gives them in different places.

Key:
fall armyworm [1] = test: Cabbage leaf disk screening of chemical insecticide rates (flubendiamide alone), mortality; assay type: in vivo; settings: 3rd instar
From the text: Chemical insecticides were first screened against insects at a range of rates/concentrations to determine which concentrations would provide a moderate level of activity against the insects. If the chemical rates are too high, it is difficult to observe additional effects provided by the addition of either live Y. entomophaga cells or cell free filtrates of Y. entomophaga cultures.
One example is provided for flubendiamide with fall armyworm. An initial rate was selected that would fall within an expected concentration of active ingredient per volume of water, as indicated on the label of insecticide products containing that active ingredient. For flubendiamide, a concentration of 58.5 mg/L was determined based on these criteria. To create this solution, first a 10× concentration solution was made by dissolving 58.5 mg in 100 mL of acetone. Then, 1:10 dilutions of this solution were made into acetone, resulting in concentrations of the compound of 58.5, 5.85, and 0.585 mg/L. Cabbage leaf disks were dipped in either acetone (controls) or concentrations of flubendiamide at 58.5, 5.85, or 0.585 mg/L in acetone. These were set to dry for 1 hr. […] A total of 10 insects were evaluated for each treatment. Insects were observed daily and the number of dead insects was visually determined (% Mortality).

black cutworm [2] = test: Leaf disk mortality assay, Y. entomophaga cells with chemical insecticides; settings: for % Mort. Chem.: black cutworm
fall armyworm [3] = test: as above; settings: for LT50 (95% confidence intervals) in days: 4th instar; for mortality at 0.59 µg/mL: Spodoptera frugiperda, foliar; for % Mort. Chem.: fall armyworm, Flubendiamide 0.59 mg/L
Yersinia entomophaga = test: CFU counts after exposure of Yersinia entomophaga to insecticides; assay type: cell-based; settings: 1 hour contact
Outline: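 Insecticides at 1× (label-rate based) and 5× or 10× amounts were dried from ethyl acetate as a coat inside tubes. Diluted LB-grown Y. entomophaga culture (1 ml) was added and held 1 hour on the bench. Then 100 μl was plated in triplicate on LB and colonies were counted after 48 hours at 25° C.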

diamondback moth = test: whole plant or invertebrate; settings: flubendiamide 0.059 mg/L; for mortality at 0.059 µg/mL: Plutella xylostella, foliar, Abbott's corrected
From the text: (§1) These were set to dry for 1 hr.
as §1
These were set to dry for 1 hr. Cabbage disks were then dipped in either 1% Luria broth (LB) media solution (controls and thiacloprid alone treatments) or in 1% cell free filtrate from a culture Y. entomophaga isolate O24G3R (Y. entomophaga alone or in combination with thiacloprid treatments).

black cutworm [4] = settings: flubendiamide 0.59 mg/L
Protocol: To produce cell free filtrates, cultures of Yersinia entomophaga grown in LB medium were centrifuged at 11,448 (g) for 10 minutes. The supernatant was decanted from the centrifuged pellet and filtered through a 0.22 μm filter. Assays were performed to determine concentrations of Yen-TC (toxin complex) using ELISA, and chitinase by measuring chitinase activity on specific substrates. […] This was done to estimate relative potency of the cell free filtrates. Insects were first pre-screened with a range of dilutions of cell free filtrates to select a concentration that provided moderate activity. […] Based on these initial screens, undiluted cell free filtrate was used for cabbage looper, fall armyworm, black cutworm, and Colorado potato beetle. […] In each of the Examples below, this is expressed as 1%.
Cabbage leaf disks were dipped in either acetone (controls and Y. entomophaga alone treatments) or in indoxacarb (Sigma 33969) at 0.53 mg/L in acetone. These were set to dry for 1 hr. […] After the cabbage disks had dried for 1 hr, a single 2nd instar black cutworm was added to each individual cabbage disk. A total of 20 insects were evaluate for each treatment. Insects were observed daily and scored as live or dead.
Cabbage leaf disks were dipped in either acetone (controls and Y. entomophaga alone treatments) or in flubendiamide (Sigma 32801) at 0.59 mg/L in acetone. These were set to dry for 1 hr. […] After the cabbage disks had dried for 1 hr, a single 2nd instar black cutworm was added to each individual cabbage disk. A total of 20 insects were evaluate for each treatment. Insects were observed daily and scored as live or dead.

[5] = 3rd instar, flubendiamide 0.20 mg/L, isolate O23ZMJ 1×10^4 cfu/mL
[6] = 3rd instar, flubendiamide 0.20 mg/L, isolate O348UX 1×10^4 cfu/mL
[7] = 3rd instar, flubendiamide 0.59 mg/L, isolate O43NEW 1×10^4 cfu/mL

Cc1cc(C(F)(C(F)(F)F)C(F)(F)F)ccc1NC(=O)c1cccc(I)c1C(=O)NC(C)(C)CS(C)(=O)=O [Flubendiamide]
% Mort (4DAT) (fall armyworm [1]; flubendiamide at 0.585 mg/L): 0%
% Mort (5DAT) (fall armyworm [1]; flubendiamide at 0.585 mg/L): 10%
% Mort (6DAT) (fall armyworm [1]; flubendiamide at 0.585 mg/L): 10%
% Mort (7DAT) (fall armyworm [1]; flubendiamide at 0.585 mg/L): 10%
% Mort (8DAT) (fall armyworm [1]; flubendiamide at 0.585 mg/L): 10%
% Mort (11DAT) (fall armyworm [1]; flubendiamide at 0.585 mg/L): 20%
% Mort (12DAT) (fall armyworm [1]; flubendiamide at 0.585 mg/L): 30%
LT50 (95% confidence intervals) (fall armyworm [1]; flubendiamide at 0.585 mg/L): 14.38 days
% Mort (4DAT) (fall armyworm [1]; flubendiamide at 5.85 mg/L): 10%
% Mort (5DAT) (fall armyworm [1]; flubendiamide at 5.85 mg/L): 30%
% Mort (6DAT) (fall armyworm [1]; flubendiamide at 5.85 mg/L): 90%
% Mort (7DAT) (fall armyworm [1]; flubendiamide at 5.85 mg/L): 100%
% Mort (8DAT) (fall armyworm [1]; flubendiamide at 5.85 mg/L): 100%
% Mort (11DAT) (fall armyworm [1]; flubendiamide at 5.85 mg/L): 100%
% Mort (12DAT) (fall armyworm [1]; flubendiamide at 5.85 mg/L): 100%
LT50 (95% confidence intervals) (fall armyworm [1]; flubendiamide at 5.85 mg/L): 4.61 days
% Mort (4DAT) (fall armyworm [1]; flubendiamide at 58.5 mg/L): 70%
% Mort (5DAT) (fall armyworm [1]; flubendiamide at 58.5 mg/L): 90%
% Mort (6DAT) (fall armyworm [1]; flubendiamide at 58.5 mg/L): 100%
% Mort (7DAT) (fall armyworm [1]; flubendiamide at 58.5 mg/L): 100%
% Mort (8DAT) (fall armyworm [1]; flubendiamide at 58.5 mg/L): 100%
% Mort (11DAT) (fall armyworm [1]; flubendiamide at 58.5 mg/L): 100%
% Mort (12DAT) (fall armyworm [1]; flubendiamide at 58.5 mg/L): 100%
LT50 (95% confidence intervals) (fall armyworm [1]; flubendiamide at 58.5 mg/L): 2.88 days
% Mortality (5DAT) (black cutworm [2]; 3rd instar black cutworm, flubendiamide 0.20 mg/L, Y. entomophaga isolate O24G3R 1 × 10^4 CFU/mL, 5 DAT, Abbott's corrected): 31%
% Mortality (6DAT) (black cutworm [2]; 3rd instar black cutworm, flubendiamide 0.20 mg/L, Y. entomophaga isolate O24G3R 1 × 10^4 CFU/mL, 6 DAT, Abbott's corrected): 44%
% Mortality (7DAT) (black cutworm [2]; 3rd instar black cutworm, flubendiamide 0.20 mg/L, Y. entomophaga isolate O24G3R 1 × 10^4 CFU/mL, 7 DAT, Abbott's corrected): 69%
LT50 (95% confidence intervals) in days (black cutworm [2]; 3rd instar black cutworm, flubendiamide 0.20 mg/L, Y. entomophaga isolate O24G3R 1 × 10^4 CFU/mL, Probit analysis): 4.83 (4.34-5.37) days
% Mortality (5DAT) (black cutworm [2]; [5]): 31%
% Mortality (6DAT) (black cutworm [2]; [5]): 44%
% Mortality (7DAT) (black cutworm [2]; [5]): 69%
LT50 (95% confidence intervals) in days (black cutworm [2]; [5]): 4.83 (4.34-5.37) days
% Mortality (5DAT) (black cutworm [2]; [6]): 31%
% Mortality (6DAT) (black cutworm [2]; [6]): 44%
% Mortality (7DAT) (black cutworm [2]; [6]): 69%
LT50 (95% confidence intervals) in days (black cutworm [2]; [6]): 4.83 (4.34-5.37) days
% Mortality (4DAT) (black cutworm [2]; [7]): 21%
% Mortality (5DAT) (black cutworm [2]; [7]): 22%
% Mortality (6DAT) (black cutworm [2]; [7]): 44%
LT50 (95% confidence intervals) in days (black cutworm [2]; [7]): 4.99 (4.53-5.48) days
% Mort. Chem. (black cutworm [2]; Flubendiamide 0.2 mg/L, 5 DAT (row with O23ZMJ)): 31%
% Mort. Chem. (black cutworm [2]; Flubendiamide 0.2 mg/L, 5 DAT (row with O24G3R)): 31%
% Mort. Chem. (black cutworm [2]; Flubendiamide 0.2 mg/L, 5 DAT (row with O348UX)): 31%
% Mort. Chem. (black cutworm [2]; Flubendiamide 0.59 mg/L, 6 DAT): 44%
LT50 (95% confidence intervals) (fall armyworm [3]; 3rd instar, flubendiamide 0.59 mg/L, isolate O43NEW 1×10^6 cfu/mL): 18.28 days
LT50 (95% confidence intervals) in days (fall armyworm [3]; flubendiamide 0.59 mg/L, isolate O23ZMJ 1×10^5 cfu/mL): 7.46 (6.86-8.10) days
LT50 (95% confidence intervals) in days (fall armyworm [3]; flubendiamide 0.59 mg/L, isolate O24G3R 1×10^5 cfu/mL): 7.46 (6.86-8.10) days
LT50 (95% confidence intervals) in days (fall armyworm [3]; flubendiamide 0.59 mg/L, isolate O348UX 1×10^5 cfu/mL): 7.46 (6.86-8.10) days
mortality at 0.59 µg/mL (fall armyworm [3]; 96 h, read-out: % Mortality (4DAT), 4th instar, flubendiamide 0.59 mg/L, isolate O23ZMJ 1×10^5 cfu/mL): 0%
mortality at 0.59 µg/mL (fall armyworm [3]; 96 h, read-out: % Mortality (4DAT), 4th instar, flubendiamide 0.59 mg/L, isolate O24G3R 1×10^5 cfu/mL): 0%
mortality at 0.59 µg/mL (fall armyworm [3]; 96 h, read-out: % Mortality (4DAT), 4th instar, flubendiamide 0.59 mg/L, isolate O348UX 1×10^5 cfu/mL): 0%
mortality at 0.59 µg/mL (fall armyworm [3]; 120 h, read-out: % Mortality (5DAT), 4th instar, flubendiamide 0.59 mg/L, isolate O348UX 1×10^5 cfu/mL): 30%
mortality at 0.59 µg/mL (fall armyworm [3]; 144 h, read-out: % Mortality (6DAT), 3rd instar, flubendiamide 0.59 mg/L, isolate O43NEW 1×10^6 cfu/mL): 0%
mortality at 0.59 µg/mL (fall armyworm [3]; 144 h, read-out: % Mortality (6DAT), 4th instar, flubendiamide 0.59 mg/L, isolate O24G3R 1×10^5 cfu/mL): 26%
mortality at 0.59 µg/mL (fall armyworm [3]; 144 h, read-out: % Mortality (6DAT), 4th instar, flubendiamide 0.59 mg/L, isolate O348UX 1×10^5 cfu/mL): 26%
mortality at 0.59 µg/mL (fall armyworm [3]; 168 h, read-out: % Mortality (7DAT), 3rd instar, flubendiamide 0.59 mg/L, isolate O43NEW 1×10^6 cfu/mL): 0%
mortality at 0.59 µg/mL (fall armyworm [3]; 264 h, read-out: % Mortality (11DAT), 3rd instar, flubendiamide 0.59 mg/L, isolate O43NEW 1×10^6 cfu/mL): 18%
mortality at 0.59 µg/mL (fall armyworm [3]; […], read-out: % Mortality (8DAT), 3rd instar, flubendiamide 0.59 mg/L, isolate O43NEW 1×10^6 cfu/mL): 5%
% Mort. Chem. (fall armyworm [3]; 4 DAT): 26%
% Mort. Chem. (fall armyworm [3]; 6 DAT (row with O23ZMJ)): 0%
% Mort. Chem. (fall armyworm [3]; 6 DAT (row with O348UX)): 26%
% Mort. Chem. (fall armyworm [3]; 7 DAT): 0%
Average CFU (Yersinia entomophaga; 0.5 mg insecticide): 328 CFU
Average CFU (Yersinia entomophaga; 5.0 mg insecticide): 0 CFU
LT50 (95% confidence intervals) (diamondback moth; 2nd instar diamondback moth, 1% O43NEW filtrate, Probit analysis): 6.52 days
LT50 Chem. (diamondback moth; Diamondback moth): 6.52 days
% Mort. Chem. (diamondback moth; Diamondback moth, 6 DAT): 32%
mortality at 0.059 µg/mL (diamondback moth; 96 h, read-out: % Mortality (4DAT), diamondback moth, 1% O43NEW filtrate, 4 DAT): 16%
mortality at 0.059 µg/mL (diamondback moth; 120 h, read-out: % Mortality (5DAT), diamondback moth, 1% O43NEW filtrate, 5 DAT): 32%
mortality at 0.059 µg/mL (diamondback moth; 144 h, read-out: % Mortality (6DAT), diamondback moth, 1% O43NEW filtrate, 6 DAT): 32%
mortality at 0.059 µg/mL (diamondback moth; 168 h, read-out: % Mortality (7DAT), diamondback moth, 1% O43NEW filtrate, 7 DAT): 58%
mortality at 0.059 µg/mL (diamondback moth; 264 h, read-out: % Mortality (11DAT), diamondback moth, 1% O43NEW filtrate, 11 DAT): 67%
LT50 (95% confidence intervals) (black cutworm [4]; 2nd instar black cutworm, undiluted O43NEW filtrate, Probit analysis): 7.05 days
LT50 Chem. (black cutworm [4]; Black cutworm): 7.05 days
% Mort. Chem. (black cutworm [4]; Black cutworm, 7 DAT): 42%
% Mortality (5DAT) (black cutworm [4]; black cutworm, undiluted O43NEW filtrate, 5 DAT, Abbott's corrected): 0%
% Mortality (6DAT) (black cutworm [4]; black cutworm, undiluted O43NEW filtrate, 6 DAT, Abbott's corrected): 37%
% Mortality (7DAT) (black cutworm [4]; black cutworm, undiluted O43NEW filtrate, 7 DAT, Abbott's corrected): 42%
% Mortality (8DAT) (black cutworm [4]; black cutworm, undiluted O43NEW filtrate, 8 DAT, Abbott's corrected): 53%
% Mortality (9DAT) (black cutworm [4]; black cutworm, undiluted O43NEW filtrate, 9 DAT, Abbott's corrected): 74%
